In US20060128792A1, “Deguelin as a chemopreventive agent for lung cancer” (priority 2002, published 2006):

Key:
[1] = tested on: premalignant (1799, 1198) and malignant (1170) HBE cell lines; assay: MTT assay, growth of premalignant and malignant HBE cell lines; assay type: cell-based; conditions: premalignant and malignant HBE cells; unpublished data
Source text: Cells and Cell Cultures. […] Tumors developed 6 months later. […] (Klein-Szanto et al., 1992).

NHBE = assay: MTT assay, growth inhibition / viability of normal HBE cells
Description: Cells and Cell Cultures. […] Normal HBE (NHBE) cells were purchased from Clontech (Palo Alto, Calif.). […] Cells were grown on tissue culture plasticware (Falcon; Bector, Dickinson, Bedford, Mass.) at 37° C. in a humidified atmosphere with 5% C02. For the analyses of growth inhibition, cell cycle, and induction of apoptosis by deguelin, NHBE cells, HBE cell lines, and squamous HBE cells were cultured in KSFM (Life Technologies) containing 2 μg/ml of EGF and bovine pitutary extract.
Cell Treatment with Deguelin and Determination of Growth Inhibition. To measure the effects of deguelin on cell proliferation, NHBE, 1799 cells, 1198 cells, and 1170 cells were transferred onto 96-well plates at densities ranging from 2×10^3 to 4×10^3 cells/well. After 1 day, the cells were changed to the fresh medium containing various concentrations of deguelin dissolved in DMSO (final concentration, 0.1%). Control cultures received 0.1% dimethyl sulfoxide (DMSO) as did the deguelin-treated cultures. […] After 1 day of infection, cells were treated with 10^−7 M or 10^−6 M of deguelin, or 0.1% DMSO as a control, and then incubated for 2 days. […] Six replicate wells were used for each analysis.

[2] = tested on: genes controlled by the TPA response element (TRE); conditions: cited from earlier work

SMILES | concentration required to induce detectable cell growth inhibition [1] | cytotoxicity on NHBE cells (NHBE) | concentration inhibiting PMA-induction of TRE-controlled genes [2]
O=c1cc(N2CCOCC2)oc2c(-c3ccccc3)cccc12 [LY294002, reference compound] | more than 10 μM | significant cytotoxicity | 
N#CC(=C(N)Sc1ccccc1N)C(C#N)=C(N)Sc1ccccc1N [U0126, 1,4diamino-2,3-dicyano-1,4 bis[2-aminophenylthio]butadiene] |  |  | 1 to 2 µM
